“And” between values parts separate entries of the source, which are not always exact repeats. Equal entries are not always repeated.
Key:
[1] = test system: TssK; assay: NMR peptide-TssK interaction (1H-15N HSQC, 1D 1H); format: binding, enteroaggregative Escherichia coli (EAEC)
Experimental: (§1) All NMR experiments were recorded at 300 K on a Bruker Avance-II 600 MHz spectrometer equipped with a cryoprobe at the IMM (Institut de Microbiologie de la Mediterranée) NMR platform. The 450-μl peptide sample tube was prepared at 1.8 mM in KPO4 buffer (50 mM KPO4 [pH 6.9], 150 mM NaCl) complemented with 30 μl D2O. 1D ^1H-^1H-TOCSY, ^1H-NOESY, and ^1H-^15N HSQC spectra (F2 = 2048; F1 = 128; NS = 384) (NS is the number of scans [accumulation] for the experiment; F2 is the sweep width; F1 is the Fourier number that defines the 2D spectrum dimensions and its digital resolution) were recorded using default pulse sequences as provided by the manufacturer. For the peptide-TssK interaction experiments, 200 μl of a 410 μM stock of TssK was added to the same sample tube (1.2 mM peptide and 140 μM TssK [final concentration]), and all NMR spectra were recorded with the addition of longer ^1H-^15N HSQC spectrometry (NS = 1,024). All spectra were transformed and the figures were generated using Bruker Topspin 4.0.9.

[2] = NMR of the free cyclic peptide; format: physicochemical; conditions: 1H-NOESY, 1.8 mM peptide, 50 mM KPO4 pH 6.9, 150 mM NaCl, 300 K
Experimental: as §1

[3] = test system: TssK-TssFGE (TssKFGE wedge complex); assay: Biolayer interferometry (BLI), TssFGE binding to biotinylated TssK; format: biochemical, enteroaggregative Escherichia coli (EAEC)
Experimental: Streptavidin-tagged TssK was purified as described above. The TssK trimer was further polished by size exclusion chromatography using a Superose 6 10/300 GL (GE Healthcare) in 50 mM HEPES (pH 7.0), 150 mM NaCl at 0.25 ml/min. For biolayer interferometry (BLI) experiments, we used high-precision Strep (SAX) biosensors from Forté Bio (number 18-5117) on the BLItz machine (Forté Bio). The trimeric ligand TssK was biotinylated using equimolar N-hydroxysuccinimide (NHS)–polyethylene glycol 4 (PEG4)–biotin (Pierce EZ-Link; 21330) in 50 mM HEPES (pH 7.0), NaCl 150 mM for 1 h at room temperature before buffer exchange in CentriPure P2 (Generon; IRL) columns against 50 mM HEPES (pH 7.0), NaCl 150 mM to remove the excess biotin. BL21(DE3) cells were used to express the interacting analytes TssG-TssF-TssE. In addition, cells containing an empty plasmid were used as a control. Cells were broken as described above, and the clarified supernatants after centrifugation for 30 min at 20,000 × g contained the control and TssFGE lysate. Streptavidin biosensors were hydrated for 10 min in HEPES buffer before binding of the biotinylated TssK. Biotinylated TssK was loaded at 1.2 μM onto the SAX biosensors for 120 s, and then the excess TssK was dissociated in HEPES buffer for 120 s. For the remaining kinetic assays, we used kinetic buffer (PBS [pH 7.3] plus 0.02% Tween 20, 0.1% bovine serum albumin [BSA], 0.05% sodium azide) (Forté Bio number 18-5032) with orbital shaking at 2,200 rpm. Kinetic buffer (KB) was used to dilute the lysates and the peptide to decrease nonspecific signals. The unbound Strep sites were blocked with 2 μM control lysate for 120 s and washed with KB for 120 s. The kinetic assays were performed using three steps with different times: baseline, 30 s; association, 120 s; and dissociation, 120 s. All the following assays were performed in triplicate. […] In the first assay, we added 47 μM lysate expressing the analytes TssG, TssF, and TssE to the bound TssK. In the second assay, we added 1 mM wild-type (WT) BCP to the bound TssK before adding 47 μM TssF-TssG-TssE. In the third assay, to validate the specificity of the WT BCP we added 1 mM mutant BCP that lacks the binding residues to the bound TssK before adding 47 μM TssF-TssG-TssE. Last, to redemonstrate the specificity of the BCP-WT, we added 1 mM randomized BCP that contains the binding residues but out of order to the bound TssK before adding 47 μM TssF-TssG-TssE.

SRPVMG-SRPVMG-SRPVMG (head to tail) [BCP, biomimetic cyclic peptide SRPVMG-SRPVMG-SRPVMG mimicking TssG foot 1]
1H-15N HSQC correlations after addition of TssK ([1]; 1 part TssK to 10 parts BCP (1.2 mM peptide, 140 μM TssK), 50 mM KPO4 pH 6.9, 150 mM NaCl, 300 K): totally disappear
1D 1H NMR peptide peaks after addition of TssK ([1]; 1 part TssK to 10 parts BCP, pH 6.9, 300 K): strong broadening of the peptides peaks
3D folding / internal structure of free peptide [2]: absence of an internal structure of the free peptide
TssFGE binding response over time in the presence of the BCP ([3]; BLI sensogram, control lysate signal (50 μM TssFGE lysate without bound TssK) subtracted, three independent experiments): decreasing binding response over time
maximum binding average response of TssFGE to TssK at 150 s in presence of peptide ([3]; BLI, 47 μM TssFGE lysate, TssK preincubated with 1 mM peptide, kinetic buffer pH 7.3, mean ± SD of three independent assays, listed as wild-type BCP): 0.121 ± 0.010 nm and 0.121 ± 0.0102 nm
interference with TssKFGE formation ([3]; BLI, 1 mM peptide, in words): significatively interferes with the TssKFGE formation
